Measurements from PubChem BioAssay AID1963829 (Molecular Pharmacology Branch, DTP, NCI, 2024).

System: 935938-334-R-J1-PDC complex spheroid viability
Assay: Anticancer human tumor 935938-334-R-J1-PDC patient-derived small intestine adenocarcinoma cell line growth inhibition [POLQ]
Details: for IC50: curve of first compound; for viability, T/C: stronger effect = lower value; active = viability on the fitted dose curve at most 10% of control; inactive = the rest
In short: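 PDC + HUVEC + MSC complex spheroids; POLQ inhibitors ± partner drugs; top conc. at/near clinical Cmax, else 10 microM (SN-38 1 microM), half-log dilutions; 37 degrees C, 5% CO2.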
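Also: spheroids exposed to drugs for seven days before viability read.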
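For viability, T/C in this document: 100% = DMSO vehicle control wells.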

CC(=O)O[C@H]1C(=O)[C@@]2(C)[C@H]([C@H](OC(=O)c3ccccc3)[C@]3(O)C[C@H](OC(=O)[C@H](O)[C@@H](NC(=O)c4ccccc4)c4ccccc4)C(C)=C1C3(C)C)[C@]1(OC(C)=O)CO[C@@H]1C[C@@H]2O + Nc1ccc(C#CCN(C(=O)Cc2ncc(C(F)(F)F)cc2C(F)(F)F)c2ccc(F)cc2)nn1
inactive: viability, T/C (second compound 0.0316 µM, first compound 0.00949 µM) 44.6% | viability, T/C (second compound 0.0316 µM, first compound 0.03 µM) 17.6% | viability, T/C (second compound 0.0316 µM, first compound 0.0949 µM) 13.5% | viability, T/C (second compound 0.0316 µM, first compound 0.3 µM) 18.1% | viability, T/C (second compound 0.0316 µM, first compound 0.949 µM) 16.1% | viability, T/C (second compound 0.0316 µM, first compound 3 µM) 16.3% | viability, T/C (second compound 0.1 µM, first compound 0.00949 µM) 34% | viability, T/C (second compound 0.1 µM, first compound 0.03 µM) 18% | viability, T/C (second compound 0.1 µM, first compound 0.0949 µM) 17.1% | viability, T/C (second compound 0.1 µM, first compound 0.3 µM) 17.1% | viability, T/C (second compound 0.1 µM, first compound 0.949 µM) 17.8% | viability, T/C (second compound 0.1 µM, first compound 3 µM) 21.7% | viability, T/C (second compound 0.316 µM, first compound 0.00949 µM) 43% | viability, T/C (second compound 0.316 µM, first compound 0.03 µM) 18.5% | viability, T/C (second compound 0.316 µM, first compound 0.0949 µM) 14.1% | viability, T/C (second compound 0.316 µM, first compound 0.3 µM) 11.7% | viability, T/C (second compound 0.316 µM, first compound 0.949 µM) 15.3% | viability, T/C (second compound 0.316 µM, first compound 3 µM) 15.9% | viability, T/C (second compound 1 µM, first compound 0.00949 µM) 30% | viability, T/C (second compound 1 µM, first compound 0.03 µM) 21.3% | viability, T/C (second compound 1 µM, first compound 0.0949 µM) 17.1% | viability, T/C (second compound 1 µM, first compound 0.3 µM) 15.5% | viability, T/C (second compound 1 µM, first compound 0.949 µM) 14.3% | viability, T/C (second compound 1 µM, first compound 3 µM) 16.9% | viability, T/C (second compound 3.16 µM, first compound 0.00949 µM) 40.9% | viability, T/C (second compound 3.16 µM, first compound 0.03 µM) 18.5% | viability, T/C (second compound 3.16 µM, first compound 0.0949 µM) 16.3% | viability, T/C (second compound 3.16 µM, first compound 0.3 µM) 13.8% | viability, T/C (second compound 3.16 µM, first compound 0.949 µM) 18.4% | viability, T/C (second compound 3.16 µM, first compound 3 µM) 19.4% | viability, T/C (second compound 10 µM, first compound 0.00949 µM) 47.3% | viability, T/C (second compound 10 µM, first compound 0.03 µM) 18.7% | viability, T/C (second compound 10 µM, first compound 0.0949 µM) 16.7% | viability, T/C (second compound 10 µM, first compound 0.3 µM) 15.5% | viability, T/C (second compound 10 µM, first compound 0.949 µM) 15.8% | viability, T/C (second compound 10 µM, first compound 3 µM) 17.5%
< 0.00949 µM: IC50 (second compound 0.0316 µM) | IC50 (second compound 0.1 µM) | IC50 (second compound 0.316 µM) | IC50 (second compound 1 µM) | IC50 (second compound 3.16 µM) | IC50 (second compound 10 µM)

CCc1cc2c(N3CCc4c(cc(Cn5ccnc5)cc4-c4cn(C)nc4C(F)(F)F)C3=O)ccnc2c(OC)n1 + COC1C(OC(N)=O)C(O)C(Oc2ccc3c(O)c(NC(=O)c4ccc(O)c(CC=C(C)C)c4)c(=O)oc3c2C)OC1(C)C
> 10 µM: IC50 (second compound 0.0316 µM) | IC50 (second compound 0.1 µM) | IC50 (second compound 0.316 µM) | IC50 (second compound 1 µM) | IC50 (second compound 3.16 µM) | IC50 (second compound 10 µM)
inactive: viability, T/C (second compound 0.0316 µM, first compound 0.0316 µM) 73.3% | viability, T/C (second compound 0.0316 µM, first compound 0.1 µM) 86.7% | viability, T/C (second compound 0.0316 µM, first compound 0.316 µM) 72.2% | viability, T/C (second compound 0.0316 µM, first compound 1 µM) 94.4% | viability, T/C (second compound 0.0316 µM, first compound 3.16 µM) 82.7% | viability, T/C (second compound 0.0316 µM, first compound 10 µM) 65.9% | viability, T/C (second compound 0.1 µM, first compound 0.0316 µM) 85.7% | viability, T/C (second compound 0.1 µM, first compound 0.1 µM) 77.2% | viability, T/C (second compound 0.1 µM, first compound 0.316 µM) 64.6% | viability, T/C (second compound 0.1 µM, first compound 1 µM) 83.8% | viability, T/C (second compound 0.1 µM, first compound 3.16 µM) 86.5% | viability, T/C (second compound 0.1 µM, first compound 10 µM) 64.5% | viability, T/C (second compound 0.316 µM, first compound 0.0316 µM) 97.2% | viability, T/C (second compound 0.316 µM, first compound 0.1 µM) 62.6% | viability, T/C (second compound 0.316 µM, first compound 0.316 µM) 85% | viability, T/C (second compound 0.316 µM, first compound 1 µM) 73.2% | viability, T/C (second compound 0.316 µM, first compound 3.16 µM) 90.5% | viability, T/C (second compound 0.316 µM, first compound 10 µM) 70.3% | viability, T/C (second compound 1 µM, first compound 0.0316 µM) 64.7% | viability, T/C (second compound 1 µM, first compound 0.1 µM) 81.9% | viability, T/C (second compound 1 µM, first compound 0.316 µM) 62.5% | viability, T/C (second compound 1 µM, first compound 1 µM) 63.9% | viability, T/C (second compound 1 µM, first compound 3.16 µM) 87.5% | viability, T/C (second compound 1 µM, first compound 10 µM) 62.1% | viability, T/C (second compound 3.16 µM, first compound 0.0316 µM) 74.5% | viability, T/C (second compound 3.16 µM, first compound 0.1 µM) 85.5% | viability, T/C (second compound 3.16 µM, first compound 0.316 µM) 88.5% | viability, T/C (second compound 3.16 µM, first compound 1 µM) 59.5% | viability, T/C (second compound 3.16 µM, first compound 3.16 µM) 73.5% | viability, T/C (second compound 3.16 µM, first compound 10 µM) 72% | viability, T/C (second compound 10 µM, first compound 0.0316 µM) 69.7% | viability, T/C (second compound 10 µM, first compound 0.1 µM) 67.2% | viability, T/C (second compound 10 µM, first compound 0.316 µM) 66.1% | viability, T/C (second compound 10 µM, first compound 1 µM) 73.6% | viability, T/C (second compound 10 µM, first compound 3.16 µM) 81.2% | viability, T/C (second compound 10 µM, first compound 10 µM) 72.2%
